Assays:
brain blood flow = conditions: study using 6 participants; cited from earlier work
[1] = test system: subjects with a caffeine habit; test: fMRI connectivity and brain blood flow analysis after test beverage; format: in vivo, human; conditions: subject that routinely ingests caffeine; brain regions consistent with caffeine cravings; FIG. 1 and FIG. 3
Excerpt: Measurement or detection of changes in the brain can be done using functional MRI (fMRI) and functional brain network analyses as known in the art. The following is an exemplary study using known techniques based upon fMRI scanning of human brains.
These examples represent an intervention study (number of subjects=24) with a randomized controlled, double-blind, placebo-controlled crossover design. The study is designed to ensure completion of all possibilities in the order of delivering the test samples, i.e. each subject is administered each of the possible test beverages in different order. […] For initial baseline testing, subjects undergo 16 hours of caffeine and chocolate withdrawal for a baseline testing and then participate in four separate brain scanning visits over 5-10 weeks. Study participants are ideally healthy adults 18-55 who consume moderate (200-500 mg) amounts of caffeine daily. […] As determined from a medical screening session, any subjects with active neurological dysfunction (such as a major Axis I psychopathology, Alzheimer's disease, Parkinson's disease, prior history of stroke, epilepsy, or serious CNS trauma, ADHD, migraines, hypertension, diabetes, peripheral vascular disease, or taking vasoactive medications, such as antihypertensive medications) are excluded from the study. […]

Cn1c(=O)c2c(ncn2C)n(C)c1=O [Caffeine, caffeine]
brain blood flow difference between caffeine and theobromine (brain blood flow): 5.03 ml/100 gm tissue/min | change in blood flow/connectivity by fMRI [1]: reduction in blood flow/connectivity

— patent US20160158240A1, “Compositions Containing Defined Caffeine and Theobromine Levels with Enhanced Cognitive Properties” (The Hershey Company, priority 2014, published 2016)
